Where two headings read alike, the source gives them in different places.
Key:
[1] = Stability in urine under different storage conditions; type: physicochemical, human
Protocol: (§4) The stability of plasma and urine samples were evaluated at three different QC concentration levels (LQC, MQC and HQC, n = 3 for each level); the conditions were freeze–thaw stability, long-term stability, short-term stability, and post preparative stability in an autosampler. The evaluation of stability under freeze–thaw condition was carried out over five cycles of − 80 °C for at least 12 h of each cycle. Long-term stability was analyzed after storing the samples at − 80 °C. Short-term stability of each analyte, for up to 8 h during processing on the bench at room temperature, was also evaluated. For evaluation of post-preparative stability, the extracted samples were stored at ambient temperature (4 °C) in an autosampler for 24 h. The analyte was considered as a stable sample when the average percentage of accuracy of the QC sample was in the range of 85–115% and the %CV was not over 15%.

[2] = Cumulative urine excretion after single oral administration of A. paniculata extract; type: in vivo, human
Protocol: (§1) An aliquot of 50 µL of plasma or urine was placed in a 1.5 mL of polypropylene centrifuge micro-tube. Protein was removed from the sample by adding 200 µL of methanol (containing 50.00 ng/mL of IS). The mixture was vortexed for 10 min and was then centrifuged at 12,000 rpm, 4 °C for 10 min. The supernatant was filtered through a […] PVDF membrane (Chrom Tech) and transferred into a glass insert in a vial before LC‑MS/MS analysis.
(§2) The clinical pharmacokinetic study was designed as an open-labeled, with a single oral dosing, and conducted under a fasting condition. Four healthy subjects were recruited according to the following inclusion criteria: 18—55 years old with a body mass index (BMI) of 18–30 kg/m^2. Study participants were identified as healthy based on laboratory testing and physical examinations. The participants received 3 capsules containing A. paniculata extract (calculated as 60 mg of andrographolide/dose) before breakfast with 240 mL of drinking water. Blood samples, in EDTA tubes, were taken after oral administration at 0, 10, 20, 30, 45 min, and 1, 1.5, 2, 4, 6, 8, 10, 12, 24 h post dose. All blood samples were then centrifuged at 4000 ± 100 rpm, 4 °C for 5 min. Plasma was pipetted and stored in cryotubes at − 80 °C until further analysis. Urine samples were collected during 0–4, 4–8, 8–12, 12–24, 24–32, 32–40 and 40–48 h after dosing and were then kept at − 80 °C before sample extraction.
(§3) Finally, the hydrolysis of glucuronide metabolites in the pharmacokinetic study was performed according to the following process: 50 µL of plasma or urine sample was incubated for 30 min with 50 µL of 1000 U/mL β-glucuronidase in phosphate buffer pH 6.8 (composed of 0.1 M sodium phosphate monobasic and 0.1 M sodium phosphate dibasic) at 37 °C. For the hydrolysis of sulfatase, 50 µL of 100 units/mL of sulfatase in an acetate buffer at pH 5.0 (composed of 0.1 M acetic acid and 0.1 M sodium acetate) was added into 50 µL of sample; the mixture was then incubated at 37 °C for 2 h. The reaction was stopped in all hydrolysis samples with 150 µL of cold methanol, and then protein precipitation was performed prior to LC–MS/MS analysis. However, due to unavailable standard of the conjugated forms (AP-glucuronide and […]). The quantitative analysis of conjugated metabolites was determined after the hydrolysis reaction by enzymatic digestion, and the free form was analyzed without hydrolysis. The conjugated standards of AP-glucuronide or AP-sulfate should be synthesized for determining the exact amount of the glucuronide or sulfate.

[3] = plasma
Protocol: as §4

[4] = Clinical pharmacokinetics in plasma after single oral administration of A. paniculata extract; type: in vivo, human; conditions: for Cmax / AUC(0-t) / Vd/F / Tmax / half-life: human, parent compound in plasma, single oral dose of extract (60 mg andrographolide); for Cmax: healthy subjects n = 4; for Cmax / AUC(0-t) / Vd/F: mean ± SD; for AUC(0-t) / Vd/F / Tmax / half-life: n = 4; for Tmax / half-life: median
Protocol: as §1, §2
Pharmacokinetic parameters were determined by non-compartmental analysis using PK solutions software, version 2.0 (Summit Research Services). The maximum concentration of four targeted compounds (Cmax) and the time to reach maximum concentration (Tmax) were taken directly from the individual plasma concentration versus time profiles. The area under the curve from time zero to the last sampling time (AUC0-t) was estimated using the linear trapezoidal rule. The apparent volume of distribution (Vd/F) and the elimination half-life (t1/2) were determined using non-compartmental analysis.
as §3

[5] = Freeze–thaw stability 5 cycles, 2.50 ng/mL (LQC)
[6] = Freeze–thaw stability 5 cycles, 500.00 ng/mL (MQC)
[7] = Freeze–thaw stability 5 cycles, 900.00 ng/mL (HQC)
[8] = Long term stability 3 months at − 80 °C, 2.50 ng/mL (LQC)
[9] = Long term stability 3 months at − 80 °C, 500.00 ng/mL (MQC)
[10] = Long term stability 3 months at − 80 °C, 900.00 ng/mL (HQC)
[11] = Post preparative stability 24 h at autosampler, 2.50 ng/mL (LQC)
[12] = Post preparative stability 24 h at autosampler, 500.00 ng/mL (MQC)
[13] = Post preparative stability 24 h at autosampler, 900.00 ng/mL (HQC)
[14] = Short term stability 8 h at room temperature, 2.50 ng/mL (LQC)
[15] = Short term stability 8 h at room temperature, 500.00 ng/mL (MQC)
[16] = Short term stability 8 h at room temperature, 900.00 ng/mL (HQC)

C=C1CC[C@@H]2[C@](C)(CO)[C@H](O)CC[C@@]2(C)[C@@H]1C/C=C1/C(=O)OC[C@H]1O [AP1, andrographolide]
%Accuracy [1, 5]: 94.39%
Measured concentration [1, 5]: 2.36 ± 0.20 ng/mL
%Accuracy [1, 6]: 94.01%
Measured concentration [1, 6]: 470.05 ± 32.15 ng/mL
%Accuracy [1, 7]: 98.78%
Measured concentration [1, 7]: 889.00 ± 36.63 ng/mL
%Accuracy [1, 8]: 95.31%
Measured concentration [1, 8]: 2.38 ± 0.16 ng/mL
%Accuracy [1, 9]: 91.78%
Measured concentration [1, 9]: 458.89 ± 20.53 ng/mL
%Accuracy [1, 10]: 98.08%
Measured concentration [1, 10]: 882.74 ± 14.22 ng/mL
%Accuracy [1, 11]: 94.23%
Measured concentration [1, 11]: 2.36 ± 0.18 ng/mL
%Accuracy [1, 12]: 95.00%
Measured concentration [1, 12]: 474.97 ± 23.30 ng/mL
%Accuracy [1, 13]: 99.66%
Measured concentration [1, 13]: 896.96 ± 17.62 ng/mL
%Accuracy [1, 14]: 93.15%
Measured concentration [1, 14]: 2.33 ± 0.06 ng/mL
%Accuracy [1, 15]: 95.80%
Measured concentration [1, 15]: 479.00 ± 32.64 ng/mL
%Accuracy [1, 16]: 101.88%
Measured concentration [1, 16]: 916.95 ± 32.00 ng/mL
Route of excretion [2]: primarily excreted renally
%Accuracy [3, 5]: 97.99%
Measured concentration [3, 5]: 2.45 ± 0.06 ng/mL
%Accuracy [3, 6]: 93.01%
Measured concentration [3, 6]: 465.07 ± 25.39 ng/mL
%Accuracy [3, 7]: 95.28%
Measured concentration [3, 7]: 857.48 ± 19.46 ng/mL
%Accuracy [3, 8]: 94.28%
Measured concentration [3, 8]: 2.36 ± 0.06 ng/mL
%Accuracy [3, 9]: 91.77%
Measured concentration [3, 9]: 458.87 ± 8.67 ng/mL
%Accuracy [3, 10]: 99.25%
Measured concentration [3, 10]: 893.21 ± 22.77 ng/mL
%Accuracy [3, 11]: 93.81%
Measured concentration [3, 11]: 2.35 ± 0.18 ng/mL
%Accuracy [3, 12]: 92.60%
Measured concentration [3, 12]: 463.01 ± 10.97 ng/mL
%Accuracy [3, 13]: 99.52%
Measured concentration [3, 13]: 895.66 ± 31.23 ng/mL
%Accuracy [3, 14]: 93.65%
Measured concentration [3, 14]: 2.34 ± 0.15 ng/mL
%Accuracy [3, 15]: 89.06%
Measured concentration [3, 15]: 445.29 ± 9.56 ng/mL
%Accuracy [3, 16]: 98.76%
Measured concentration [3, 16]: 888.87 ± 23.16 ng/mL
Cmax [4]: 60.9 ± 26.5 ng/mL
AUC(0-t) [4]: 210 ± 21.1 ng·h/mL
Vd/F [4]: 4.58 ± 3.28 L/kg
Tmax [4]: 0.8 h
half-life [4]: 1.27 h
AUC of both conjugated metabolites compared to the respective parent compounds ([4]; plasma, single oral dose of extract): greater

C=C1CC[C@@H]2[C@](C)(CO[C@@H]3O[C@H](CO)[C@@H](O)[C@H](O)[C@H]3O)CCC[C@@]2(C)[C@@H]1CCC1=CCOC1=O [AP4, neoandrographolide]
%Accuracy [1, 5]: 93.80%
Measured concentration [1, 5]: 2.35 ± 0.08 ng/mL
%Accuracy [1, 6]: 92.94%
Measured concentration [1, 6]: 464.68 ± 10.80 ng/mL
%Accuracy [1, 7]: 101.12%
Measured concentration [1, 7]: 910.07 ± 23.86 ng/mL
%Accuracy [1, 8]: 93.48%
Measured concentration [1, 8]: 2.34 ± 0.16 ng/mL
%Accuracy [1, 9]: 89.13%
Measured concentration [1, 9]: 445.65 ± 10.92 ng/mL
%Accuracy [1, 10]: 94.77%
Measured concentration [1, 10]: 852.94 ± 7.53 ng/mL
%Accuracy [1, 11]: 96.03%
Measured concentration [1, 11]: 2.40 ± 0.15 ng/mL
%Accuracy [1, 12]: 89.94%
Measured concentration [1, 12]: 449.68 ± 2.36 ng/mL
%Accuracy [1, 13]: 101.81%
Measured concentration [1, 13]: 916.25 ± 29.10 ng/mL
%Accuracy [1, 14]: 97.15%
Measured concentration [1, 14]: 2.43 ± 0.07 ng/mL
Measured concentration [1, 15]: 461.15 ± 18.24 ng/mL
%Accuracy [1, 16]: 102.82%
Measured concentration [1, 16]: 925.37 ± 32.74 ng/mL
Conjugated metabolites in the urine [2]: negligible
Route of excretion [2]: primarily excreted renally
%Accuracy [3, 5]: 99.77%
Measured concentration [3, 5]: 2.49 ± 0.14 ng/mL
%Accuracy [3, 6]: 94.01%
Measured concentration [3, 6]: 470.07 ± 13.89 ng/mL
%Accuracy [3, 7]: 100.73%
Measured concentration [3, 7]: 906.60 ± 9.37 ng/mL
%Accuracy [3, 8]: 93.19%
Measured concentration [3, 8]: 2.33 ± 0.12 ng/mL
%Accuracy [3, 9]: 94.65%
Measured concentration [3, 9]: 473.25 ± 26.27 ng/mL
%Accuracy [3, 10]: 98.12%
Measured concentration [3, 10]: 883.06 ± 16.19 ng/mL
%Accuracy [3, 11]: 102.61%
Measured concentration [3, 11]: 2.57 ± 0.12 ng/mL
%Accuracy [3, 12]: 97.12%
Measured concentration [3, 12]: 485.59 ± 17.11 ng/mL
%Accuracy [3, 13]: 98.43%
Measured concentration [3, 13]: 885.84 ± 17.63 ng/mL
%Accuracy [3, 14]: 98.11%
Measured concentration [3, 14]: 2.45 ± 0.19 ng/mL
%Accuracy [3, 15]: 94.85%
Measured concentration [3, 15]: 474.29 ± 22.98 ng/mL
%Accuracy [3, 16]: 98.96%
Measured concentration [3, 16]: 890.60 ± 51.25 ng/mL
Cmax [4]: 22.4 ± 5.87 ng/mL
AUC(0-t) [4]: 44.1 ± 7.48 ng·h/mL
Vd/F [4]: 0.65 ± 0.13 L/kg
Tmax [4]: 1.5 h
half-life [4]: 0.22 h
Amount detected in plasma ([4]; parent compound, single oral dose of extract): only very small amounts
Conjugated metabolites in plasma ([4]; single oral dose of extract): negligible

From publication PMC9924185, “A validated LC–MS/MS method for clinical pharmacokinetics and presumptive phase II metabolic pathways following oral administration of Andrographis paniculata extract” (Scientific Reports, 2023)
